Laboratory results as given in patent publication US20080214563A1, “Benzimidazole Thiophene Compounds As Plk Modulators” (priority 2005, published 2008).

Experiments:
[1] = Intravenous pharmacokinetics in CD-1 mouse; assay type: in vivo; details: plasma, iv bolus, male CD-1 mouse, dose 1.9-7.4 mg/kg per compound (Table 3)
Description: Preliminary investigation of the intravenous pharmacokinetics of compounds of invention were carried out in fed conscious CD-1 mouse. Compounds were formulated as 1-10 mg/kg, 5 mL/kg, 1-2 mg/mL solution (Table 3). Twenty one male mice (n=3 mice per time point) (˜30 g) received dose solution by bolus injection in the tail vein. The formulation for iv were either 20% beta cyclodextrin in saline pH 3.5-6 or PEG400:ethanol:saline (50:15:35 v/v). Blood samples (˜0.4 mL) were collected terminally by cardiac puncture following anesthetization in a CO2 chamber at 2, 15, 30, 60 min, 2, 4, and 6 h following iv administration. Blood samples were collected into tubes containing heparin and placed on crushed ice promptly after collection. Plasma was collected by centrifugation, frozen and stored at about −80° C. prior to analysis. Blood or plasma concentrations were determined by LC/MS/MS equipped with an electrospray ion source and using calibration curves for the appropriate matrix. The lower level of quantitation (LLQ) was 10 ng/mL. Blood or plasma concentration-time data were analyzed by non-compartmental methods using the computer program WinNonlin Professional (version 4.1). Area under the blood or plasma concentration-time curve (AUC) was calculated using the linear trapezoidal rule for each incremental trapezoid up to Cmax, and the log trapezoidal rule for each trapezoid thereafter. The terminal elimination rate constant (λz) was derived from the log-linear disposition phase of the concentration-time curve using least-squares regression analysis with visual inspection of the data to determine the appropriate number of terminal data points for regression analysis.
Following iv administration, the total body clearance (CL) was estimated. CL was calculated by dividing the dose by AUC(0−t). The clearance values were assigned as follows. Low <30 mL/min/kg, moderate 30-70 mL/min/kg, high >70 mL/min/kg. The assignment was based on hepatic blood flow i.e. hepatic blood flow of 0-30% low, 30-70% moderate and 70-100% high. The hepatic blood flow in mouse is ˜100 mL/min/kg.

P388 = assay: Cell-Titer Glo Cell Growth Inhibition Assay, P388; assay type: cell-based, murine; details: Mus musculus, CellTiter-Glo, 72 h, read-out: CTG P388 IC50
Description: (§1) A549-L (human lung), BT474 (human breast), Colo 205 (human colon), H1299 (human lung), Hela (human cervix), HCT-116 (human colon), HN5 (human head and neck), HT29 (human colon), LNCap (human prostate), MCF7 (human breast), MDA-MB468 (human breast), MX-1 (human breast), RPMI 8226 (human peripheral blood), SKOV3 (human ovary) and P388 (murine leukemia) cell lines were cultured in RPMI1640 containing 10% fetal bovine serum at 37° C. in a 5% CO2 incubator. Cell lines were split into T75 flasks (Falcon #353136) two to three days prior to assay set up at density which yields approximately 70-80% confluency at time of harvest for assay. Cells were harvested using 0.25% trypsin with EDTA (Glibco/Invitrogen #25200-056), Cell counts were performed on cell suspensions using Trypan Blue exclusion staining, cells were then plated in 105 uL of culture media per well at the following densities in 96 well Costar #3916 black flat bottom plates: All human cell lines were plated at 500 cells/well. P388 were plated at 250 cells/well. All plates were placed at 5% CO2 37° C. overnight and then test compounds were added the following day. One plate of each cell type is treated with CellTiter-Glo (Promega #G7573) for a day 0 proliferation measurement and read as described below. The test compounds are prepared in clear U bottom polypropylene 96 well plates (Falcon #35-1190 with consecutive two fold dilutions. 9 uL of these dilutions was added into each well of the cell plates. The final concentration of DMSO in all wells is 0.15%. Cells were incubated at 37° C., 5% CO2 for 72 h. Following 72 h of incubation with compounds each plate was developed and read. CellTiter-Glo reagent was added to assay plates using a volume equivalent to the cell culture volume in the wells. Plates were shaken for approximately two minutes and incubated at room temperature for approximately 15 min and the chemiluminescent signal is read on the Victor V or Envison 2100 reader. […] Concentration of compound that inhibited 50% of cell growth (IC50) was analysis by 4 or 6 parameter fit of data using XLfit, value of no cell addition was subtracted from all samples for background.

BT474 = assay: Cell-Titer Glo Cell Growth Inhibition Assay, BT474; assay type: cell-based; details: Homo sapiens; CellTiter-Glo, 72 h, BT 474; read-out: CTG BT 474 IC50
Description: (§2) A549-L (human lung), BT474 (human breast), Colo 205 (human colon), H1299 (human lung), Hela (human cervix), HCT-116 (human colon), HN5 (human head and neck), HT29 (human colon), LNCap (human prostate), MCF7 (human breast), MDA-MB468 (human breast), MX-1 (human breast), RPMI 8226 (human peripheral blood), SKOV3 (human ovary) and P388 (murine leukemia) cell lines were cultured in RPMI1640 containing 10% fetal bovine serum at 37° C. in a 5% CO2 incubator. Cell lines were split into T75 flasks (Falcon #353136) two to three days prior to assay set up at density which yields approximately 70-80% confluency at time of harvest for assay. Cells were harvested using 0.25% trypsin with EDTA (Glibco/Invitrogen #25200-056), Cell counts were performed on cell suspensions using Trypan Blue exclusion staining, cells were then plated in 105 uL of culture media per well at the following densities in 96 well Costar #3916 black flat bottom plates: All human cell lines were plated at 500 cells/well. P388 were plated at 250 cells/well. All plates were placed at 5% CO2 37° C. overnight and then test compounds were added the following day. One plate of each cell type is treated with CellTiter-Glo (Promega #G7573) for a day 0 proliferation measurement and read as described below. […]

SKOV3 = assay: Cell-Titer Glo Cell Growth Inhibition Assay, SKOV-3; assay type: cell-based; details: Homo sapiens, SK-OV-3, CellTiter-Glo, 72 h, read-out: CTG SKOV-3 IC50
Description: as §1

Colo 205 = assay: Cell-Titer Glo Cell Growth Inhibition Assay, COLO205; assay type: cell-based; details: Homo sapiens, CellTiter-Glo, 72 h, read-out: CTG COLO205 IC50
Description: as §1

Hela = assay: Cell-Titer Glo Cell Growth Inhibition Assay, Hela; assay type: cell-based; details: Homo sapiens, CellTiter-Glo, 72 h, read-out: CTG Hela IC50
Description: as §2

MDA-MB468 = assay: Cell-Titer Glo Cell Growth Inhibition Assay, MDA-MB468; assay type: cell-based; details: Homo sapiens, MDA-MB-468, CellTiter-Glo, 72 h, read-out: CTG MDA-MB468 IC50
Description: as §2

MCF7 = assay: Cell-Titer Glo Cell Growth Inhibition Assay, MCF7; assay type: cell-based; details: Homo sapiens, CellTiter-Glo, 72 h, read-out: CTG MCF7 IC50
Description: as §2

MX-1 = assay: Cell-Titer Glo Cell Growth Inhibition Assay, MX-1; assay type: cell-based; details: Homo sapiens, MX1, CellTiter-Glo, 72 h, read-out: CTG MX-1 IC50
Description: as §1

RPMI 8226 = assay: Cell-Titer Glo Cell Growth Inhibition Assay, RPMI 8226; assay type: cell-based; details: Homo sapiens, CellTiter-Glo, 72 h, read-out: CTG RPMI 8226 IC50
Description: as §2

HN5 = assay: Cell-Titer Glo Cell Growth Inhibition Assay, HN5; assay type: cell-based; details: Homo sapiens, CellTiter-Glo, 72 h, read-out: CTG HN5 IC50
Description: as §2

HCT-116 = assay: Cell-Titer Glo Cell Growth Inhibition Assay, HCT116; assay type: cell-based; details: Homo sapiens, CellTiter-Glo, 72 h, read-out: CTG HCT116 IC50
Description: as §1

H1299 = assay: Cell-Titer Glo Cell Growth Inhibition Assay, H1299; assay type: cell-based; details: Homo sapiens, NCI-H1299, CellTiter-Glo, 72 h, read-out: CTG H1299 IC50
Description: as §2

HT29 = assay: Cell-Titer Glo Cell Growth Inhibition Assay, HT29; assay type: cell-based; details: Homo sapiens, HT-29, CellTiter-Glo, 72 h, read-out: CTG HT29 IC50
Description: as §1

A549-L = assay: Cell-Titer Glo Cell Growth Inhibition Assay, A549-L; assay type: cell-based; details: Homo sapiens, CellTiter-Glo, 72 h, read-out: CTG A549-L IC50
Description: as §1

LNCap = assay: Cell-Titer Glo Cell Growth Inhibition Assay, LNCap; assay type: cell-based; details: Homo sapiens, CellTiter-Glo, 72 h, read-out: CTG LNCap IC50
Description: as §2

AUC(0-t) [1]: 1410 ng·h/mL
clearance ([1]; read-out: Plasma CL): 43.6 mL/min/kg
IC50 (P388): < 100 nM
IC50 (BT474): < 100 nM
IC50 (SKOV3): < 100 nM
IC50 (Colo 205): < 100 nM
IC50 (Hela): < 100 nM
IC50 (MDA-MB468): < 100 nM
IC50 (MCF7): < 100 nM
IC50 (HCT-116): < 100 nM
IC50 (H1299): < 100 nM
IC50 (HT29): < 100 nM
IC50 (A549-L): < 100 nM
IC50 (LNCap): < 100 nM
Structure (SMILES): CCN1CCN(CCCn2cc(-c3ccc4c(c3)ncn4-c3cc(O[C@H](C)c4ccccc4Cl)c(C(N)=O)s3)cn2)CC1 [Example 8, 3-{[(1R)-1-(2-Chlorophenyl)ethyl]oxy}-5-(5-{1-[3-(4-ethyl-1-piperazinyl)propyl]-1H-pyrazol-4-yl}-1H-benzimidazol-1-yl)-2-thiophenecarboxamide]
IC50 (MX-1): < 100 nM
IC50 (RPMI 8226): < 100 nM
IC50 (HN5): < 100 nM
